# Measured values taken from patent US20240245602A1, “DRUG COMBINATION KITS AND METHODS OF DRUG DELIVERY” (President and Fellows of Harvard College, priority 2020, published 2024).
# Test: In vivo ciprofloxacin mass in aspirated middle ear fluid by HPLC/MS after delivery through implanted tympanostomy tubes
# Settings: after 5 minutes of therapeutic delivery (Ciprodex)
# Experimental: N/A indicates an amount of drug below the detection limit of 100 ng/ml. Chinchillas underwent a sequential series of middle ear saline washes, and middle ear fluid was aspirated for the subsequent analysis by LC-MS.
# Chinchillas were randomly allocated into two groups (LI-TT, denoted as Test TT, and SM-TT, denoted as SoC TT).
structure (smiles),measurement,value
O=C(O)c1cn(C2CC2)c2cc(N3CCNCC3)c(F)cc2c1=O [ciprofloxacin],"mass of ciprofloxacin within the middle ear, test tubes compared to SoC TTs",up to 5 times
